Columns and labels:
FPR2-HL60 cells = target: T1, FPR2-HL60 cells (Homo sapiens, UniProt P25090); test: Inhibition of WKYMVM-induced Ca2+ influx in FPR2-HL60 cells; type: cell-based; settings: pure compounds; 10 min preincubation; induced by 5 nM WKYMVM
T1 construct: expressed in transfected cells
T1 sequence (P25090 1-351): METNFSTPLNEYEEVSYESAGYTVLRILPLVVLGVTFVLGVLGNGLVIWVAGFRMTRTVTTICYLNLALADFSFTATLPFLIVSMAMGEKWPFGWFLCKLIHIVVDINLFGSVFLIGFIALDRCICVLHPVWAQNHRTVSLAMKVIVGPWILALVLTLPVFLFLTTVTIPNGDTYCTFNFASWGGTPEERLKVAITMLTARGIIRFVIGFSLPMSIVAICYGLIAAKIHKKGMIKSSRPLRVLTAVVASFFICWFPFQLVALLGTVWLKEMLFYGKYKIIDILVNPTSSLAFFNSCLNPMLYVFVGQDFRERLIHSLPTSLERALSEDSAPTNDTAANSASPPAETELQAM
Experimental: (§1) Human promyelocytic leukemia HL60 cells stably transfected with FPR1 (FPR1-HL60 cells) or FPR2 (FPR2-HL60 cells) were kindly provided by Dr. Marie-Josephe Rabiet, INSERM, Grenoble, France. These cells were cultured in RPMI 1640 medium containing 10% heat-inactivated fetal calf serum, 10 mM HEPES, 100 μg/mL streptomycin, 100 U/mL penicillin, and G418 (1 mg/mL). G418 was removed before assays were performed.
(§2) Changes in intracellular Ca^2+ concentrations ([Ca^2+]i) in human neutrophils were measured with a FlexStation 3 scanning fluorometer (Molecular Devices), as previously described. To assess the direct effects of test compounds or pure essential oils on Ca^2+ influx, the compounds/oils were added to the wells (final concentration of DMSO was 1%), and changes in fluorescence were monitored (λex = 485 nm, λem = 538 nm) every 5 s for 240 s at room temperature after addition of the test compound. To evaluate inhibitory effects of the compounds on FPR1/FPR2-dependent Ca^2+ influx, the compounds were added to the wells (final concentration of DMSO was 1%) with cells (human neutrophils or FPR1/FPR2 HL60 cells). The samples were preincubated for 10 min, followed by addition of 5 nM fMLF (for human neutrophils or FPR1-HL60 cells) or 5 nM WKYMVM (for FPR2-HL60 cells). The maximum change in fluorescence, expressed in arbitrary units over baseline, was used to determine the agonist response. Responses were normalized to the response induced by 5 nM fMLF or 5 nM WKYMVM, which were assigned as 100%.
(§3) For all Ca^2+ influx experiments, curve fitting (at least five or six points) and calculation of median effective concentration values (EC50 or IC50) were performed by nonlinear regression analysis of the dose–response curves generated using Prism 7 (GraphPad Software, Inc., San Diego, CA, USA).

HL60 cells = test: Cytotoxicity assay (CellTiter-Glo) in HL60 cells; type: cell-based, human; settings: oils up to 25 µg/mL, compounds up to 25 µM
Experimental: Cytotoxicity of essential oils and pure compounds was analyzed in human promyelocytic HL60 cells using a CellTiter-Glo Luminescent Cell Viability Assay Kit (Promega), as described previously.

FPR1-HL60 cells = target: T2, FPR1-HL60 cells (Homo sapiens, UniProt P21462); test: Inhibition of fMLF-induced Ca2+ influx in FPR1-HL60 cells; type: cell-based; settings: pure compounds; 10 min preincubation; induced by 5 nM fMLF
T2 construct: expressed in transfected cells
T2 sequence (P21462 1-350): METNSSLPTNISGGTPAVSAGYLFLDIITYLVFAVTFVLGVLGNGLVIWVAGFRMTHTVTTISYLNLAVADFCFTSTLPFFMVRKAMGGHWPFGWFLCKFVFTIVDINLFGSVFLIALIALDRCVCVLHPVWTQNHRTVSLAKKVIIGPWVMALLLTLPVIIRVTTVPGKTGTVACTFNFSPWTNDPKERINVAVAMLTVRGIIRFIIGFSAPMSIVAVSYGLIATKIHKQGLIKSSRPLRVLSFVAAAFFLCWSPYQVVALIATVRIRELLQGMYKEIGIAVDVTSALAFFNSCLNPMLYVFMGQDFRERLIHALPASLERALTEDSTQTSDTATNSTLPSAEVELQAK
Experimental: as §1, §2, §3

JNK3 = target: T3, JNK3 (Homo sapiens, UniProt P53779); test: KINOMEscan kinase Kd determination, JNK3; type: binding; settings: maximum concentration of 33 µM
T3 construct: purchased Eurofins Pharma Discovery, San Diego, CA, USA (KINOMEscan service)
T3 sequence (P53779 whole entry): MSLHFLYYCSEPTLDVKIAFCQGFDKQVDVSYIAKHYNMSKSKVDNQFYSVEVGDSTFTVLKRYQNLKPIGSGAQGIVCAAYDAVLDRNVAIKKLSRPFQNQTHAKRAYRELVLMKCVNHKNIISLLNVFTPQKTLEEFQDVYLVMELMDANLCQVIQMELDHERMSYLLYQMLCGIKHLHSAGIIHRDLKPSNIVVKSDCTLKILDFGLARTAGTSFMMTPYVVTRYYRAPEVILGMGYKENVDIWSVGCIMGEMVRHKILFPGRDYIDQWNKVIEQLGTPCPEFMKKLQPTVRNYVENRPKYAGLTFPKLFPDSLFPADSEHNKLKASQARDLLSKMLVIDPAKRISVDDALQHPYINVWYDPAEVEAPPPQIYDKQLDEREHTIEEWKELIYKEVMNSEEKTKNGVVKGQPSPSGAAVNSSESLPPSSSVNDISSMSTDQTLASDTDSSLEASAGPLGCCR
Experimental: (§4) KINOMEscan®® was used to determine the dissociation constant (Kd) of the indicated sesquiterpenes for selected kinases (Eurofins Pharma Discovery, San Diego, CA, USA). […] Assays were performed in duplicate, and the average mean value is shown.

human neutrophils [1] = test: Inhibition of fMLF-induced Ca2+ influx in human neutrophils; type: cell-based; settings: Homo sapiens, Neutrophil; pure compounds; 10 min preincubation; induced by 5 nM fMLF
Text: (§5) For isolation of human neutrophils, blood was collected from healthy donors in accordance with a protocol approved by the Institutional Review Board at Montana State University (Protocol #MQ041017), as described previously. Isolated neutrophils were washed and resuspended in HBSS^–. Neutrophil preparations were routinely >95% pure and >98% viable. Neutrophils were obtained from multiple different donors (n = 8); however, the cells from different donors were never pooled during experiments.
as §2, §3

human neutrophils [2] = test: Ca2+ influx (direct effect) in human neutrophils; type: cell-based; settings: Homo sapiens, Neutrophil; pure compounds; direct effect on [Ca2+]i; mean ± SD of three experiments
Text: as §5, §2, §3

[3] = test system: human C20 microglial cells; test: Inhibition of fMLF-induced Ca2+ influx in C20 microglial cells; type: cell-based; settings: 10 min, pure compounds, 10 min incubation, induced by 10 μM fMLF
Experimental: (§6) Human C20 microglial cells were kindly provided by Dr. David Alvarez-Carbonell (Department of Molecular Biology and Microbiology, Case Western Reserve University, Cleveland, OH, USA); these are immortalized primary human microglial cells that maintain characteristics of primary microglial cells. C20 cells were grown at 37 °C and 5% CO2 in DMEM:F12 medium supplemented with 10% FBS, 2.5 mM L-glutamine, 110 mg/L sodium pyruvate, 15 mM HEPES, 100 μg/mL normocin, 100 μg/mL streptomycin, and 100 U/mL penicillin.
(§7) For analysis of Ca^2+ influx in C20 microglial cells, the cells were plated in 96-well black, clear bottom plates at 10^4 cells/well in DMEM/F12 medium containing 10% FBS. The cells were treated with 200 nM PMA for 24 h, and the medium was changed every day for 5 days. On day 5, the cells were loaded with FLIPR Calcium 5 (Molecular Devices) at a volume ratio of 1:1 for 30 min at 37 °C in the dark. The plates were then placed in a FlexStation 3 fluorometer, and basal fluorescence was measured (λex = 485 nm, λem = 538 nm). Essential oils or individual compounds of interest were added manually (final concentration of DMSO was 1%), and fluorescence was monitored for 2 min to assess the direct effects of these treatments on [Ca^2+]i. After a 10 min incubation at 37 °C, the fluorescence baseline was recorded again, and 10 µM fMLF was added to evaluate inhibitory effects on agonist-induced [Ca^2+]i. Responses were normalized to the response induced by 10 µM fMLF.
as §3

MAPKAPK2 = target: T4, MAPKAPK2 (Homo sapiens, UniProt P49137); test: KINOMEscan kinase Kd determination, MAPKAPK2; type: binding; settings: maximum concentration of 33 µM
T4 construct: purchased Eurofins Pharma Discovery, San Diego, CA, USA (KINOMEscan service)
T4 sequence (P49137 whole entry): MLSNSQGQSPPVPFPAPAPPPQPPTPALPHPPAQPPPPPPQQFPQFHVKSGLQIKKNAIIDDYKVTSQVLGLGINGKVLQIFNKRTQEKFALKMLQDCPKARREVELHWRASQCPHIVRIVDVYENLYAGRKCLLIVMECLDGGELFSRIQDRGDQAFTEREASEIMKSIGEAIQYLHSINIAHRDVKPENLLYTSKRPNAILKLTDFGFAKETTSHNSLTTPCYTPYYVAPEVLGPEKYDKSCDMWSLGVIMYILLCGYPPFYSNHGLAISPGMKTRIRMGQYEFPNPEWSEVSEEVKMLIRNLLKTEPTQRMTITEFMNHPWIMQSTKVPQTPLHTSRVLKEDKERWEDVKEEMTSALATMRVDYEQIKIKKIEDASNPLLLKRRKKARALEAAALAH
Experimental: as §4

PIM1 = target: T5, PIM1 (Homo sapiens, UniProt P11309); test: KINOMEscan kinase Kd determination, PIM1; type: binding; settings: maximum concentration of 33 µM
T5 construct: purchased Eurofins Pharma Discovery, San Diego, CA, USA (KINOMEscan service)
T5 sequence (P11309 whole entry): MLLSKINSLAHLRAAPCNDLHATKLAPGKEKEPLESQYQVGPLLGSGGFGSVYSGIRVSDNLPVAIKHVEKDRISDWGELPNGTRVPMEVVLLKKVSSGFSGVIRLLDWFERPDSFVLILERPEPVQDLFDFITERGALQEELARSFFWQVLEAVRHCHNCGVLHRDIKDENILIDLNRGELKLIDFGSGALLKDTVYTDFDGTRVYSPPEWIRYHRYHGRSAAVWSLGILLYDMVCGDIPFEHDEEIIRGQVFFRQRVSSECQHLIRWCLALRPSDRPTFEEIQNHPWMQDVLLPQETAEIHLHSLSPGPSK
Experimental: as §4

human neutrophils [4] = test: Neutrophil chemotaxis assay (fMLF-induced); type: cell-based; settings: Homo sapiens, Neutrophil; pure compounds; chemotaxis induced by 1 nM fMLF
Text: as §5
Human neutrophils were resuspended in HBSS^+ containing 2% (v/v) heat-inactivated fetal bovine serum (2 × 10^6 cells/mL), and chemotaxis was analyzed in 96-well ChemoTx chemotaxis chambers (Neuroprobe, Gaithersburg, MD), as described previously. Curve fitting (at least eight to nine points) and calculation of median effective concentration values (IC50) were performed by nonlinear regression analysis of the dose-response curves generated using GraphPad Prism 8.

[5] = test system: human C20 microglial cells; test: Ca2+ influx (direct effect) in C20 microglial cells; type: cell-based; settings: Homo sapiens; pure compounds; direct effect on [Ca2+]i; mean ± SD of three experiments
Experimental: as §6, §7, §3

IC50 (FPR2-HL60 cells): 10.7 ± 3.8 µM
IC50 (FPR1-HL60 cells): 19.5 ± 4.7 µM
Binding affinity (Kd) toward JNK3 (JNK3): did not observe any binding activity
IC50 (human neutrophils [1]): 7.8 ± 2.3 µM
EC50 (human neutrophils [2]): 6.8 ± 2.3 µM
IC50 [3]: 22.6 ± 3.1 µM
Binding affinity (Kd) toward MAPKAPK2 (MAPKAPK2): did not observe any binding activity
Binding affinity (Kd) toward PIM1 (PIM1): did not observe any binding activity
IC50 (human neutrophils [4]): 18.3 ± 4.1 µM
EC50 [5]: 27.8 ± 4.6 µM
SMILES: C[C@@H]1CC[C@H]2[C@@H]1[C@H]1[C@@H](CC[C@]2(C)O)C1(C)C [Viridiflorol, viridiflorol]
Cell viability (cytotoxicity), 30 min incubation (HL60 cells; 30 min): minimal effects on cell viability
Cell viability (cytotoxicity), 2 h incubation (HL60 cells; 2 h): a little more cytotoxicity

— PMC8232766, “Chemical Composition and Immunomodulatory Activity of Essential Oils from Rhododendron albiflorum” (Molecules, 2021)
